Measured values: patent publication US20080318905A1, “Prodrugs and methods of making and using the same” (priority 2006, published 2008)

Columns and labels:
[1] = Chemical hydrolysis / aqueous stability in PBS at pH 1.2, 6 and 8, 37° C., HPLC; conditions: 1 mg/mL
Procedure: (§1) PBS solutions at various pHs (1.2, 6 and 8) were prepared by adjusting 60-mL volumes of PBS maintained at 37° C. with a dropwise addition of concentrated phosphoric acid and/or 0.01 N NaOH, and monitoring with a pH meter calibrated between pH 4 and 7. […] A 50 μL sample was taken for the t=0 time point. The remaining solution was then divided into five aliquots (175 μL each) in microcentrifuge vials labeled according to sampling time-points. Air-tight sealed vials were then incubated at 37° C. in a temperature-controlled water bath. At each time-point, the appropriate vial was removed from the water bath, and a 50 μL sample drawn for HPLC analysis.

human mu receptor = human mu receptor (Homo sapiens, UniProt P35372); test: Human mu receptor binding (IC50, Ki)
[2] = target: alkaline phosphatase (EC 3.1.3.1) (Bos taurus, UniProt P19111); test: Enzymatic hydrolysis by alkaline phosphatase at pH 8, 37° C., HPLC
Procedure: Alkaline Phosphatase (400 units) was added to 10 mL of Alkaline Phosphatase Stabilizing Buffer (APSB; Sigma-Aldrich Catalog #A4955) maintained at 37° C. Solution pH was verified by dropping 25 μL of solution onto calibrated Color-pHast Indicator Strips (pH 2-9, Darmstadt, Germany) and checking the color against the calibration scale. […] At each sampling time point, a 200-μL aliquot was drawn into labeled micro centrifuge tubes, each containing 50 μL of Alkaline Phosphatase Stop Solution (APSS; Sigma-Aldrich Catalog #A5852). Acetonitrile (400 μL) was added to each micro centrifuge tube, vortexed briefly, and centrifuged at 12,000 rpm for 5 min. An aliquot (200 μL) of resulting supernatant was removed from each tube, being careful not to disturb the enzyme pellet at the bottom and transferred to HPLC vials containing low volume inserts.

[3] = Solubility in PBS at pH 8; conditions: for Solubility in PBS at pH 8: PBS pH 8, 37° C., levorphanol free base by sonication; for solubility: PBS, 37 °C, pH 8, aqueous buffer, thermodynamic from solid
Procedure: as §1

alkaline phosphatase (EC 3.1.3.1), sequence (P19111 20-506 limits assumed): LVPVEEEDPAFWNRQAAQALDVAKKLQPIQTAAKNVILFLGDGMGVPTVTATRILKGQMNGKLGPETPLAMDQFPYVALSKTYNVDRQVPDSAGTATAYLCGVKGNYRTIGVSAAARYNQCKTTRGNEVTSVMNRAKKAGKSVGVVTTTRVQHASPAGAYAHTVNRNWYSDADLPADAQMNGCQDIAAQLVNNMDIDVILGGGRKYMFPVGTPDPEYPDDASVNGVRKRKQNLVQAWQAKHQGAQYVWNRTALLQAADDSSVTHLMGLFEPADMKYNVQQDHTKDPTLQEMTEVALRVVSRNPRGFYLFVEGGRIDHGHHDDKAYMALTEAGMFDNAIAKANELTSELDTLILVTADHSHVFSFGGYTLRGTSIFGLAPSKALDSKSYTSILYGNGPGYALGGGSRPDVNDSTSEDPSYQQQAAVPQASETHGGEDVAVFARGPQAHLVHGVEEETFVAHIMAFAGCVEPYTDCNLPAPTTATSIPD
human mu receptor, sequence (P35372 whole entry): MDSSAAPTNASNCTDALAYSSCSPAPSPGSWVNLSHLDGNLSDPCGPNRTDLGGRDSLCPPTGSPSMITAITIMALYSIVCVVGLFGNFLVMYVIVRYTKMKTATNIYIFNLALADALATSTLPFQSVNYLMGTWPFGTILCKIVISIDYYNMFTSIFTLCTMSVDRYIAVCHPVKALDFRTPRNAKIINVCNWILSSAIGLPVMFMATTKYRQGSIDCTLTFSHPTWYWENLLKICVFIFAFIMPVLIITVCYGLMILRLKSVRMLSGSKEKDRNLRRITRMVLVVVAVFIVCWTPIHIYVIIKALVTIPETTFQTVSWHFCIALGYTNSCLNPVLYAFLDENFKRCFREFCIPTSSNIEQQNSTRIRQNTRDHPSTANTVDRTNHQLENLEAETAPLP

Structure (SMILES): C[N+]1(COP(=O)(O)O)CCC23CCCCC2C1Cc1ccc(O)cc13 (stereo not drawn) [N-phosphonooxymethyl levorphanol, N-Phosphonooxymethyl Levorphanol]
- Percentage of N-phosphonooxymethyl levorphanol remaining ([1]; pH 1.2 PBS, 0 hours): 100.0
- Percentage of N-phosphonooxymethyl levorphanol remaining ([1]; pH 1.2 PBS, 0.5 hours): 111.5
- Percentage of N-phosphonooxymethyl levorphanol remaining ([1]; pH 1.2 PBS, 1 hour): 104.4
- Percentage of N-phosphonooxymethyl levorphanol remaining ([1]; pH 1.2 PBS, 3 hours): 110.9
- Percentage of N-phosphonooxymethyl levorphanol remaining ([1]; pH 1.2 PBS, 5 hours): 111.1
- Percentage of N-phosphonooxymethyl levorphanol remaining ([1]; pH 1.2 PBS, 23 hours): 110.9
- Percentage of N-phosphonooxymethyl levorphanol remaining ([1]; pH 6 PBS, 0 hours): 100.0
- Percentage of N-phosphonooxymethyl levorphanol remaining ([1]; pH 6 PBS, 0.5 hours): 101.4
- Percentage of N-phosphonooxymethyl levorphanol remaining ([1]; pH 6 PBS, 1 hour): 102.3
- Percentage of N-phosphonooxymethyl levorphanol remaining ([1]; pH 6 PBS, 3 hours): 104.3
- Percentage of N-phosphonooxymethyl levorphanol remaining ([1]; pH 6 PBS, 5 hours): 104.3
- Percentage of N-phosphonooxymethyl levorphanol remaining ([1]; pH 6 PBS, 22 hours): 108.0
- Percentage of N-phosphonooxymethyl levorphanol remaining ([1]; pH 8 PBS, 0 hours): 100.0
- Percentage of N-phosphonooxymethyl levorphanol remaining ([1]; pH 8 PBS, 0.5 hours): 100.6
- Percentage of N-phosphonooxymethyl levorphanol remaining ([1]; pH 8 PBS, 1 hour): 100.3
- Percentage of N-phosphonooxymethyl levorphanol remaining ([1]; pH 8 PBS, 3.5 hours): 99.8
- Percentage of N-phosphonooxymethyl levorphanol remaining ([1]; pH 8 PBS, 6 hours): 100.5
- Percentage of N-phosphonooxymethyl levorphanol remaining ([1]; pH 8 PBS, 24 hours): 103.7
- IC50 (human mu receptor): 14 nM
- Ki (human mu receptor; human mu receptor, same assay as IC50, read-out: inhibition constant, Ki): 5.7 nM
- N-phosphonooxymethyl levorphanol remaining ([2]; alkaline phosphatase, after 30 minutes): no measurable amounts
- share of total peak area that is N-phosphonooxymethyl levorphanol ([2]; alkaline phosphatase, time zero): 1.4%
- time to hydrolyze to levorphanol in the presence of alkaline phosphatase ([2]; pH 8, 40 units AP per mg): ≤ 30 min
- Solubility in PBS at pH 8 [3]: approximately 137 mg/mL
- solubility [3]: ~137 mg/mL

Structure (SMILES): CN1CC[C@]23CCCC[C@H]2[C@H]1Cc1ccc(O)cc13 [levorphanol, Levorphanol, reference compound]
- Solubility in PBS at pH 8 [3]: less than 1 mg/mL
- solubility [3]: < 1 mg/mL
